# Results: ChEMBL document CHEMBL1641543, “Synthesis and topoisomerase II inhibitory and cytotoxic activity of oxiranylmethoxy- and thiiranylmethoxy-chalcone derivatives” (Bioorg Med Chem Lett, 2011)
# Key:
# K562 = experiment: Cytotoxicity against human K562 cells by MTT assay; format: functional, cell-based
# MCF7 = experiment: Cytotoxicity against human MCF7 cells by MTT assay; format: functional, cell-based
# DU-145 = experiment: Cytotoxicity against human DU145 cells by MTT assay; format: functional, cell-based
# HCT-15 = experiment: Cytotoxicity against human HCT15 cells by MTT assay; format: functional, cell-based
# [1] = target: DNA topoisomerase 2-alpha (Homo sapiens) (UniProt P11388); experiment: Inhibition of human topoisomerase 2-mediated relaxation of supercoiled pBR322 at 100 uM by agarose gel electrophoresis
# [2] = target: T1, DNA topoisomerase 1 (Homo sapiens) (UniProt P11387); experiment: Inhibition of human topoisomerase 1-mediated relaxation of supercoiled pBR322 at 100 uM by agarose gel electrophoresis
# T1 sequence (whole entry): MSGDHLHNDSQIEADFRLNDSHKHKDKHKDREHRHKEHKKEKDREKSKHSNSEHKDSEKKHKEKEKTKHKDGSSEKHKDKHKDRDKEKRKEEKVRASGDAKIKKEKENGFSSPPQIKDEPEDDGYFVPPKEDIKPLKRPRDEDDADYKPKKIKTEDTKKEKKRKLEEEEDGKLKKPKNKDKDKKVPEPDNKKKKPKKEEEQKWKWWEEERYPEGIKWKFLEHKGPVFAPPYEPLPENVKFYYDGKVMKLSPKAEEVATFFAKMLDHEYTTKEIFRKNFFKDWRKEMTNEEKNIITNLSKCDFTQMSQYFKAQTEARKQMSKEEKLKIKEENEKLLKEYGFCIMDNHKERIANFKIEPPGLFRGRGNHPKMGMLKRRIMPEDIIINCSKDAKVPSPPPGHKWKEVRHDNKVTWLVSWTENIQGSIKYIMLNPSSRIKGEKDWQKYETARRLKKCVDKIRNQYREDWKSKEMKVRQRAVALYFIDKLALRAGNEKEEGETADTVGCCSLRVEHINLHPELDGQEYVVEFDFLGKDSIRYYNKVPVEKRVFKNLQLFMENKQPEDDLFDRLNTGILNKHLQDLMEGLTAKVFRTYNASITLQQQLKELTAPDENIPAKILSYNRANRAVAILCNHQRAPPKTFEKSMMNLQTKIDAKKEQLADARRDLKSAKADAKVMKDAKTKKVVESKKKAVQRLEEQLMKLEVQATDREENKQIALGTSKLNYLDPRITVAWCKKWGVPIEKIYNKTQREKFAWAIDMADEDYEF
# [3] = target: DNA topoisomerase 2-alpha (Homo sapiens) (UniProt P11388); experiment: Inhibition of human topoisomerase 2-mediated relaxation of supercoiled pBR322 at 20 uM by agarose gel electrophoresis
# DNA topoisomerase 2-alpha (Homo sapiens), sequence (P11388 whole entry): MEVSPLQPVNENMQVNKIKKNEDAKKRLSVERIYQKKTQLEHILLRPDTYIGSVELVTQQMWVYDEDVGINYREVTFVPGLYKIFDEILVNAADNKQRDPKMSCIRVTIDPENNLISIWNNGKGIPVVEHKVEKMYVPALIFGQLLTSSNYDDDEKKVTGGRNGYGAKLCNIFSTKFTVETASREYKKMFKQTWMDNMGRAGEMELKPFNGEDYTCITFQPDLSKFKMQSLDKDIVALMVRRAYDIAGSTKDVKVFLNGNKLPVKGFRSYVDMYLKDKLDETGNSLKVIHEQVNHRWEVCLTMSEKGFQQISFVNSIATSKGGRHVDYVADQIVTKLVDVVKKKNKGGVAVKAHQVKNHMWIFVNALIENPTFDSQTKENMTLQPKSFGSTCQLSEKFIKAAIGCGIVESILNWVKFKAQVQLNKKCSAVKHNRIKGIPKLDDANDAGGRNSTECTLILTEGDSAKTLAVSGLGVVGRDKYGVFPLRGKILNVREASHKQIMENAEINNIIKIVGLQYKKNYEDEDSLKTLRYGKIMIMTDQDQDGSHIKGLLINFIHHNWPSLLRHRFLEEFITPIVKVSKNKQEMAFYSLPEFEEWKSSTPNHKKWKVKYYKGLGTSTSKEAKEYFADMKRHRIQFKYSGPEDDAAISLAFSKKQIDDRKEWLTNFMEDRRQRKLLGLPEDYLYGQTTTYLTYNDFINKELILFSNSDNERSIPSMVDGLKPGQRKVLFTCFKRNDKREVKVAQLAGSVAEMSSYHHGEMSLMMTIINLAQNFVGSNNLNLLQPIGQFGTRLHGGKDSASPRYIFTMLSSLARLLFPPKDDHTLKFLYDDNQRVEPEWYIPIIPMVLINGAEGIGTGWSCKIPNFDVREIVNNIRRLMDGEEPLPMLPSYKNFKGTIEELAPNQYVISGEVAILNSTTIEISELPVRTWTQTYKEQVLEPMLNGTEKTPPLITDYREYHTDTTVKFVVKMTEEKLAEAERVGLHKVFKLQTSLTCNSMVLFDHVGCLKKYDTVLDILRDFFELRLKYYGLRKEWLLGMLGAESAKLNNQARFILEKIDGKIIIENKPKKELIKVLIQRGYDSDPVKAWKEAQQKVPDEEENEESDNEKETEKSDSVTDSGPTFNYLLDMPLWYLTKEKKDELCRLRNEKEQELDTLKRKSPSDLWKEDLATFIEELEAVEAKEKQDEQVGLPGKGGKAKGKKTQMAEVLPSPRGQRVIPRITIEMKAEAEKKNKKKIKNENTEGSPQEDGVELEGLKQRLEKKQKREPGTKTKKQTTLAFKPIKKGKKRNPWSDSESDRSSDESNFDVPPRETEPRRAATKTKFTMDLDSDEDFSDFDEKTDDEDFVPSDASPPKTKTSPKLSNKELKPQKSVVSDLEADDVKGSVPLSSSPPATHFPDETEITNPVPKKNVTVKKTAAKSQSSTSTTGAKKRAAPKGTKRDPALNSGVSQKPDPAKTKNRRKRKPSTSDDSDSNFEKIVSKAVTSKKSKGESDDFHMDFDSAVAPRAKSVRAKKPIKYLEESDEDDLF
inhibition [1],inhibition [2],inhibition [3],Compound,IC50 (K562),IC50 (MCF7),IC50 (DU-145),IC50 (HCT-15)
,,,CC[C@@]1(O)C(=O)OCc2c1cc1n(c2=O)Cc2cc3ccccc3nc2-1 [CAMPTOTHECIN],0.59 µM,2.43 µM,0.61 µM,0.8 µM
22%,0%,15.2%,COc1ccc(C(=O)/C=C/c2ccc(OCC3CO3)cc2)cc1 (stereo not drawn),33.5 µM,10.9 µM,36.9 µM,30.4 µM
33.5%,0%,19.3%,O=C(/C=C/c1ccc(OCC2CO2)cc1)c1ccc(OCC2CO2)cc1 (stereo not drawn),7.27 µM,3.87 µM,> 50 µM,18.5 µM
28.5%,0%,14%,COc1cc(OCC2CO2)ccc1/C=C/C(=O)c1ccc(OCC2CO2)cc1 (stereo not drawn),13.7 µM,3.64 µM,> 50 µM,4.82 µM
,,,COc1cccc2c1C(=O)c1c(O)c3c(c(O)c1C2=O)C[C@@](O)(C(=O)CO)C[C@@H]3O[C@H]1C[C@H](N)[C@H](O)[C@H](C)O1 [DOXORUBICIN],1.33 µM,,1.75 µM,1.25 µM
34.9%,0%,16.3%,COc1ccc(/C=C/C(=O)c2ccc(OCC(O)CCl)cc2)cc1 (stereo not drawn),16.2 µM,18.4 µM,> 50 µM,20.5 µM
61.9%,,38%,COc1cc([C@@H]2c3cc4c(cc3[C@@H](O[C@@H]3O[C@@H]5CO[C@@H](C)O[C@H]5[C@H](O)[C@H]3O)[C@H]3COC(=O)[C@H]23)OCO4)cc(OC)c1O [ETOPOSIDE],1.21 µM,1.98 µM,1.44 µM,2.03 µM
30.1%,0%,14%,COc1ccc(C(=O)/C=C/c2ccc(OCC(O)CCl)cc2)cc1 (stereo not drawn),29.1 µM,29.2 µM,> 50 µM,20.6 µM
28.8%,0%,17.6%,COc1ccc(/C=C/C(=O)c2ccc(OCC3CO3)cc2)cc1 (stereo not drawn),27.9 µM,11.6 µM,43.3 µM,27.1 µM

Compound,inhibition [1],inhibition [2],inhibition [3],IC50 (K562),IC50 (MCF7),IC50 (DU-145),IC50 (HCT-15)
COc1ccc(C(=O)/C=C/c2ccc(OCC3CS3)cc2)cc1 (stereo not drawn),31.6%,0%,15.5%,32.5 µM,11.5 µM,> 50 µM,28.4 µM
COc1ccc(/C=C/C(=O)c2ccc(OCC3CS3)cc2)cc1 (stereo not drawn),31.6%,0%,14.8%,> 50 µM,23.6 µM,19.4 µM,10.1 µM
COc1ccc(/C=C/C(=O)c2ccc(OCC3CS3)cc2OCC2CS2)cc1 (stereo not drawn),61%,0%,20.8%,7.6 µM,0.49 µM,1.07 µM,0.23 µM
O=C(/C=C/c1ccc(OCC2CS2)cc1)c1ccc(OCC2CS2)cc1 (stereo not drawn),34.6%,0%,18%,13.4 µM,21.7 µM,> 50 µM,12.2 µM
